Assay results as given in patent publication US11447486B2, “2-amino-benzimidazole derivatives and their use as 5-lipoxygenase and/or prostaglandin E synthase inhibitors” (INSTITUT PASTEUR KOREA, priority 2014, dated 2022).

Legend:
Rat whole blood (RWB) = assay: LTB4 secretion assay in RWB (rat whole blood); type: cell-based; details: Rattus norvegicus
Method: Rat blood was drawn from caudal vena cava from male Sprague Dawley rat (6-9 weeks old) in vacuette coated with sodium heparin (Greiner bio-one, Cat #455051). The blood was pooled and diluted with RPMI (WelGENE, Cat #LM 011-05) to 1:1. The diluted blood was aliquoted into 96 well plate (200 ul per well) and compounds were added in dose response to a desired concentration ranging from 2.5 nM to 50 uM. After 15 min of pre-incubation at 37° C., calcium ionophore (A23187) was added to the final concentration of 10 uM. After 10 min of further incubation at 37° C., the LTB4 production was stopped by diluting the reaction mixture with ice cold PBS (1:4 dilutions). Cells were removed by centrifugation at 1000×g, 4° C. for 10 min, and the supernatant was transferred and then the quantification of LTB4 was done with Leukotriene B4 EIA kit (Cayman, Cat #520111) as instructed.

human 5-LOX = target: T1, human 5-LOX (Homo sapiens, UniProt P09917); assay: 5-LOX enzyme activity, fluorescence method (5-HPETE, H2DCFDA); type: biochemical; details: read-out: 5-LO (IC50)
T1 construct: purchased Cayman 60402; host or cells: insect cells (lysate)
T1 sequence (P09917 1-674): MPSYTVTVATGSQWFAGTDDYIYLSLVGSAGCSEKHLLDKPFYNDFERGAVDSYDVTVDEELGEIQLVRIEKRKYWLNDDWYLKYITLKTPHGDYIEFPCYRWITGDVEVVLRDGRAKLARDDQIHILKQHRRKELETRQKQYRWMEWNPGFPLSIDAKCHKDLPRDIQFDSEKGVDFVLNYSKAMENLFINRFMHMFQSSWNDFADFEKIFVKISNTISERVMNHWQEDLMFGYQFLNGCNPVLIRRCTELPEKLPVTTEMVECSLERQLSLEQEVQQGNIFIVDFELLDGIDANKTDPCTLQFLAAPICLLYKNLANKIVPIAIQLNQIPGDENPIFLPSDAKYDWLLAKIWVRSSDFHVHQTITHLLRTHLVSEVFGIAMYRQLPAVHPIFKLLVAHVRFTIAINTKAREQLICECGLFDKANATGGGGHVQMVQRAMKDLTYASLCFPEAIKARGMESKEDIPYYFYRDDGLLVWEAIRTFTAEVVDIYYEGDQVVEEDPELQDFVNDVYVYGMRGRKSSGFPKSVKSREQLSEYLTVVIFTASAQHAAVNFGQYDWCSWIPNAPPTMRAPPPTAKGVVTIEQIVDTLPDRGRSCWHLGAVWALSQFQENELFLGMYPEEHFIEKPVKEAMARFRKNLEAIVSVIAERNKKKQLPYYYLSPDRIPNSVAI
How it was run: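 Compound (0.5 nM to 10 uM) pre-incubated 5 min with enzyme; reaction started with ATP (100 uM final) and arachidonic acid (3 uM final). All steps at room temperature, fluorescence read-out.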

[1] = test system: Rat basophilic leukemia (RBL) cells; assay: LTB4 secretion assay in RBL (rat basophilic leukemia cells); type: cell-based; details: Rattus norvegicus, RBL
How it was run: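 Cells seeded 2×10^4/well the day before, then pre-incubated 15 min at 37 °C in EMEM/0.5% FBS with compound (5 nM to 100 uM). Stimulation with 2.5 uM arachidonic acid plus 5 uM A23187 (final) for 10 min at 37 °C; LTB4 in supernatant quantified by EIA.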

| SMILES | EC50 (Rat whole blood (RWB)) | IC50 (human 5-LOX) | EC50 [1] |
| --- | --- | --- | --- |
| Nc1ccc2[nH]c(NCc3ccc(OCc4ccc(Cl)cc4)cc3)nc2c1 [Compound 4] | > 20 µM | < 1 µM | – |
| Clc1ccc(Oc2ccc(CNc3nc4cc(Nc5cccnc5)ccc4[nH]3)cc2)cc1 [Compound 16] | > 20 µM | < 1 µM | – |
| Nc1ccc2[nH]c(NCc3ccc4oc(-c5ccc(OC(F)(F)F)cc5)nc4c3)nc2c1 [Compound 1] | > 20 µM | < 1 µM | – |
| Nc1ccc2[nH]c(NCc3ccc(N4CCC(COc5ccc(Cl)cc5)CC4)cc3)nc2c1 [Compound 5] | 10 to 20 µM | < 1 µM | – |
| O=C(NC1CC1)c1c[nH]nc1Nc1ccc2[nH]c(NCc3ccc(Oc4ccc(Cl)cc4)cc3)nc2c1 [Compound 12] | < 10 µM | < 1 µM | – |
| Nc1ccc2[nH]c(NCCc3ccc(Oc4ccc(Cl)cc4)cc3)nc2c1 [Compound 11] | < 10 µM | < 1 µM | – |
| CCOC(=O)c1c[nH]nc1Nc1ccc2nc(N)n(CCOc3ccc(OC(F)(F)F)cc3)c2c1 [Compound 22] | > 20 µM | > 10 µM | – |
| Nc1ccc2[nH]c(NCc3ccc(Oc4ccc(Cl)cc4)cc3Cl)nc2c1 [Compound 9] | 10 to 20 µM | < 1 µM | – |
| CCOC(=O)c1c[nH]nc1Nc1ccc2[nH]c(NCc3ccc(Oc4ccc(Cl)cc4)cc3)nc2c1 [Compound 13] | > 20 µM | 1 to 10 µM | – |
| Nc1ccc2[nH]c(NCc3ccc(N4CCC(Oc5ccc(Cl)cc5)C4)cc3)nc2c1 (stereo not drawn) [Compound 3] | > 20 µM | < 1 µM | – |
| Fc1ccc(Nc2ccc3[nH]c(NCc4ccc(Oc5ccc(Cl)cc5)cc4)nc3c2)cn1 [Compound 23] | 10 to 20 µM | 1 to 10 µM | – |
| Cc1cc(Nc2ccc3nc(NC4(c5ccc(Oc6ncc(Cl)cn6)cc5)CC4)n(C)c3c2)n[nH]1 [Compound 478] | – | < 1 µM | < 10 µM |
| Cn1c(NCc2ccc(Oc3ccc(Cl)nc3)cc2)nc2ccc(N)cc21 [Compound 280] | – | < 1 µM | < 10 µM |
| Cn1c(NCc2ccc(Oc3ccc(Cl)cn3)cc2)nc2ccc(NC3CNC3)cc21 [Compound 401] | – | < 1 µM | < 10 µM |
| c1ccc(Oc2ccc(CNc3nc4cc(NC5CCC5)ccc4[nH]3)cc2)cc1 [Compound 96] | – | < 1 µM | < 10 µM |
| Cn1c(NC2(c3ccc(Oc4ncc(Cl)cn4)cc3)CC2)nc2ccc(N)cc21 [Compound 472] | – | 1 to 10 µM | < 10 µM |
| Cn1c(NCc2ccc(COc3ccc(Cl)cn3)cc2)nc2ccc(N)cc21 [Compound 304] | – | < 1 µM | < 10 µM |
| CCC(Nc1nc2cc(N)ccc2[nH]1)c1ccc(Oc2ccc(Cl)cc2)cc1 (stereo not drawn) [Compound 124] | – | < 1 µM | < 10 µM |
| Cc1cc(CNc2nc3ccc(NC4COC4)cc3n2C)ccc1Oc1ccc(Cl)cn1 [Compound 283] | – | < 1 µM | < 10 µM |
| Cn1c(NCc2ccc(Oc3ncc(Cl)cn3)cc2)nc2ccc(NC3C[S+]([O-])C3)cc21 (stereo not drawn) [Compound 386] | – | 1 to 10 µM | > 20 µM |
| CC(C)(CO)Nc1ccc2[nH]c(NCc3ccc(Cl)cc3F)nc2c1 [Compound 31] | – | < 1 µM | > 20 µM |
| Cn1c(NCc2ccc(Oc3ccc(Cl)cn3)cc2)nc2ccc(NC(C)(C)C(=O)O)cc21 [Compound 326] | – | < 1 µM | < 10 µM |
| CC(C)(O)Cn1c(NCc2ccc(Oc3ccc(Cl)cn3)cc2)nc2ccc(NC3COC3)cc21 [Compound 208] | – | < 1 µM | < 10 µM |
| Cn1c(NCc2ccc(Oc3ncc(Cl)c4ccccc34)cc2)nc2ccc(NC3COC3)cc21 [Compound 400] | – | < 1 µM | < 10 µM |
| COc1cc(Oc2ccc(Cl)cn2)ccc1CNc1nc2ccc(N)cc2n1C [Compound 327] | – | < 1 µM | < 10 µM |
| Nc1cnc2nc(N3CCCC3)n(CCOc3ccc(OC(F)(F)F)cc3)c2c1 [Compound 83] | – | 1 to 10 µM | > 20 µM |
| Cn1c(NCc2ccc(Oc3nc4ccc(Cl)cc4n3C)cc2)nc2ccc(N)cc21 [Compound 428] | – | < 1 µM | < 10 µM |

| SMILES | EC50 (Rat whole blood (RWB)) | IC50 (human 5-LOX) | EC50 [1] |
| --- | --- | --- | --- |
| CCn1c(NCc2ccc(Oc3ccc(Cl)cn3)cc2)nc2ccc(N)cc21 [Compound 265] | – | < 1 µM | < 10 µM |
| OCC(O)CNc1ccc2nc(NCc3ccc(Oc4ccc(Cl)cc4)cc3)[nH]c2c1 (stereo not drawn) [Compound 215] | – | < 1 µM | < 10 µM |
| Nc1ccc2[nH]c(NCc3ccc(F)cc3)nc2c1 [Compound 28] | – | < 1 µM | 10 to 20 µM |
| Cn1c(NCc2ccc(Oc3ccc(Cl)cc3)cc2)nc2ccc(NCC(N)=O)cc21 [Compound 170] | – | < 1 µM | 10 to 20 µM |
| Cn1c(NCc2ccc(Oc3ncc(Cl)cc3Cl)cc2)nc2ccc(NC3COC3)cc21 [Compound 322] | – | > 10 µM | < 10 µM |
| CCn1c(NCc2ccc(Oc3cnc(Cl)cn3)cc2)nc2ccc(Nc3n[nH]c(C)c3Cl)cc21 [Compound 515] | – | > 10 µM | < 10 µM |
| CN(C)CCn1c(NCc2ccc(Oc3ccc(Cl)cn3)cc2)nc2ccc(N)cc21 [Compound 286] | – | < 1 µM | < 10 µM |
| Cn1c(NCc2ccc(Oc3nccc(C(F)(F)F)n3)cc2)nc2ccc(N)cc21 [Compound 363] | – | < 1 µM | > 20 µM |
| Cc1cc(CNc2nc3ccc(N)cc3n2C)cc(C)c1Oc1ncc(Cl)cn1 [Compound 411] | – | < 1 µM | > 20 µM |
| COC(c1ccc(CNc2nc3ccc(NC4COC4)cc3[nH]2)cc1)c1ccccn1 (stereo not drawn) [Compound 189] | – | < 1 µM | > 20 µM |
| Cn1c(NCc2ccc(Oc3cnc4cc(Cl)ccc4n3)cc2)nc2ccc(NC3COC3)cc21 [Compound 427] | – | < 1 µM | < 10 µM |
| Cn1ccc(Nc2ccc3nc(NCc4ccc(Oc5ncc(Cl)cn5)cc4)[nH]c3c2F)n1 [Compound 480] | – | < 1 µM | < 10 µM |
| COC(c1ccc(CNc2nc3ccc(N)cc3[nH]2)cc1)c1ccccn1 (stereo not drawn) [Compound 181] | – | < 1 µM | > 20 µM |
| Nc1ccc2nc(N3CCC(C(=O)c4ccc(OC(F)(F)F)cc4)C3)[nH]c2c1 (stereo not drawn) [Compound 178] | – | < 1 µM | 10 to 20 µM |
| Cn1c(NCc2ccc(Oc3ncc4cc(Cl)ccc4n3)cc2)nc2ccc(NC3COC3)cc21 [Compound 406] | – | < 1 µM | < 10 µM |
| CCn1c(NCc2ccc(Oc3ncc(C(F)(F)F)cn3)cc2)nc2ccc(Nc3cc(C(F)(F)F)n(C)n3)cc21 [Compound 521] | – | 1 to 10 µM | < 10 µM |
| Cn1c(NCc2ccc(Oc3ccc(OC(F)(F)F)cc3)cc2)nc2ccc(NC3COC3)cc21 [Compound 293] | – | < 1 µM | < 10 µM |
| CC(C)(C(O)c1ccc(CNc2nc3ccc(N)cc3[nH]2)cc1)C(F)(F)F (stereo not drawn) [Compound 198] | – | < 1 µM | 10 to 20 µM |
| Cn1c(NCc2ccc(Oc3cnc(Cl)cn3)cc2)nc2ccc(N)cc21 [Compound 295] | – | < 1 µM | < 10 µM |
| Nc1cc(Cl)c2nc(N3CCCC3)n(CCOc3ccc(OC(F)(F)F)cc3)c2c1 [Compound 89] | – | < 1 µM | > 20 µM |
| Cc1cnc(Oc2ccc(CNc3nc4ccc(N)cc4n3C)cc2)nc1 [Compound 348] | – | < 1 µM | > 20 µM |
| CN(C)c1nc2ccc(NCc3ccc(N(Cc4ncco4)c4ccc(F)cc4)cc3)cc2[nH]1 [Compound 213] | – | < 1 µM | < 10 µM |
| Cn1c(NCc2ccc(Oc3ccc(Cl)cc3)cn2)nc2ccc(N)cc21 [Compound 297] | – | < 1 µM | < 10 µM |
| Cn1c(NCc2ccc(Oc3ccc(C(F)(F)F)nc3)cc2)nc2ccc(N)cc21 [Compound 223] | – | < 1 µM | < 10 µM |
| CN(C(=O)c1ccc(CNc2nc3ccc(N)cc3n2C)cc1)c1ccc(Cl)cn1 [Compound 319] | – | < 1 µM | > 20 µM |
| Cn1c(NCc2ccc(Oc3ccc(Cl)cc3)cc2)nc2ccc(N3CCC3)cc21 [Compound 182] | – | < 1 µM | 10 to 20 µM |
| CN(C)c1nc2ccc(N3CCC(C(=O)c4ccc(Cl)cn4)C3)cc2[nH]1 (stereo not drawn) [Compound 230] | – | < 1 µM | < 10 µM |
